Converted amounts (≈) assume the structure as drawn. The source made the active and inactive calls. The calls are words filed in the database; no cut-off is given here.
Key:
[1] = Oral bioavailability in Sprague-Dawley rat; assay type: ADME, organism-based; details: in vivo
[2] = Aqueous solubility of the compound in PBS at pH 7 at 2 mg incubated for 24 hrs by HPLC-UV analysis; assay type: physicochemical
[3] = Aqueous solubility of the compound in PBS at pH 2 at 2 mg incubated for 24 hrs by HPLC-UV analysis; assay type: physicochemical
[4] = Aqueous solubility of the compound in PBS at pH 7.4 at 2 mg incubated for 24 hrs by HPLC-UV analysis; assay type: physicochemical
Mus musculus [5] = assay: (§1) Antiinflammatory activity in LPS-induced C57BL/6 mouse model of […] assessed as inhibition of IL6 expression in lung tissue at 2.5 to 10 mg/kg, ip pretreated with compound for 30 mins followed by LPS stimulation and measured after 6 hrs by qRT-PCR analysis; assay type: functional, organism-based; details: dose 2.5-10 mg/kg, time 390.0 min
Mus musculus [6] = assay: as §1, with “reduction in inflammatory cell infiltrations” for “inhibition of IL6 expression”, “hematoxylin and eosin staining method” for “qRT-PCR analysis”; assay type: functional, organism-based; details: dose 2.5-10 mg/kg, time 390.0 min
[7] = target: Keap1/Nrf2 (Homo sapiens) (UniProt Q16236+Q14145); assay: Binding affinity to human Keap1-Nrf2 protein-protein interaction assessed as dissociation constant (Kd2) incubated for 60 mins by fluorescent polarization assay
Mus musculus [8] = assay: Antiinflammatory activity in LPS-induced C57BL/6 mouse model of […] assessed as inhibition of TNFalpha level in BALF administered intraperitoneally pretreated with compound for 30 mins followed by LPS stimulation and measured after 6 hrs by ELISA method; assay type: functional, organism-based; details: dose 2.5-10 mg/kg, route ip, time 390.0 min
Mus musculus [9] = assay: Antiinflammatory activity in LPS-induced C57BL/6 mouse model of […] assessed as Nrf2 nuclear translocation in lung tissue at 2.5 to 10 mg/kg, ip pretreated with compound for 30 mins followed by LPS stimulation and measured after 6 hrs by Western blotting analysis; assay type: functional, organism-based; details: dose 2.5-10 mg/kg, time 390.0 min
Mus musculus [10] = assay: Antiinflammatory activity in LPS-induced C57BL/6 mouse model of […] assessed as inhibition of IL1beta expression in lung tissue at 2.5 to 10 mg/kg, ip pretreated with compound for 30 mins followed by LPS stimulation and measured after 6 hrs by qRT-PCR analysis; assay type: functional, organism-based; details: dose 2.5-10 mg/kg, time 390.0 min
Peritoneal macrophage [11] = assay: Antiinflammatory activity in mouse peritoneal macrophages assessed as reduction in LPS-induced IL6 level at 10 uM incubated for 4 hrs by ELISA method; assay type: functional, cell-based
Mus musculus [12] = assay: Antiinflammatory activity in LPS-induced C57BL/6 mouse model of […] assessed as reduction in congestion in lung tissue at 2.5 to 10 mg/kg, ip pretreated with compound for 30 mins followed by LPS stimulation and measured after 6 hrs by hematoxylin and eosin staining method; assay type: functional, organism-based; details: dose 2.5-10 mg/kg, time 390.0 min
Mus musculus [13] = assay: Antiinflammatory activity in LPS-induced C57BL/6 mouse model of […] assessed as inhibition of IL6 level in BALF administered intraperitoneally pretreated with compound for 30 mins followed by LPS stimulation and measured after 6 hrs by ELISA method; assay type: functional, organism-based; details: dose 2.5-10 mg/kg, route ip, time 390.0 min
Mus musculus [14] = assay: Antiinflammatory activity in LPS-induced C57BL/6 mouse model of […] assessed as reduction in bleeding points in lung tissue at 2.5 to 10 mg/kg, ip pretreated with compound for 30 mins followed by LPS stimulation and measured after 6 hrs by hematoxylin and eosin staining method; assay type: functional, organism-based; details: dose 2.5-10 mg/kg, time 390.0 min
Mus musculus [15] = assay: Antiinflammatory activity in LPS-induced C57BL/6 mouse model of […] assessed as inhibition of TNFalpha expression in lung tissue at 2.5 to 10 mg/kg, ip pretreated with compound for 30 mins followed by LPS stimulation and measured after 6 hrs by qRT-PCR analysis; assay type: functional, organism-based; details: dose 2.5-10 mg/kg, time 390.0 min
Mus musculus [16] = assay: Antiinflammatory activity in LPS-induced C57BL/6 mouse model of […] assessed as inhibition of IL1beta level in BALF administered intraperitoneally pretreated with compound for 30 mins followed by LPS stimulation and measured after 6 hrs by ELISA method; assay type: functional, organism-based; details: dose 2.5-10 mg/kg, route ip, time 390.0 min
[17] = MRT (0 to infinity) in Sprague-Dawley rat at 20 mg/kg, ip; assay type: ADME, organism-based; details: in vivo
[18] = AUC (0 to infinity) in Sprague-Dawley rat at 20 mg/kg, ip; assay type: ADME, organism-based; set-up: dose 20 mg/kg, route ip; details: in vivo
[19] = MRT (0 to infinity) in Sprague-Dawley rat at 5 mg/kg, iv; assay type: ADME, organism-based; details: in vivo
[20] = AUC (0 to infinity) in Sprague-Dawley rat at 5 mg/kg, iv; assay type: ADME, organism-based; set-up: dose 5 mg/kg, route iv; details: in vivo
[21] = Apparent volume of distribution in Sprague-Dawley rat at 5 mg/kg, iv; assay type: ADME, organism-based; details: in vivo, read-out: Vz
[22] = Clearance in Sprague-Dawley rat at 5 mg/kg, iv; assay type: ADME, organism-based; details: in vivo
Peritoneal macrophage [23] = assay: Antiinflammatory activity in mouse peritoneal macrophages assessed as fold reduction in LPS-induced TNFalpha level at 10 uM incubated for 4 hrs by ELISA method; assay type: functional
[24] = AUC (0 to 24 hrs) in Sprague-Dawley rat at 5 mg/kg, iv; assay type: ADME, organism-based; set-up: dose 5 mg/kg, route iv; details: in vivo
[25] = Half life in Sprague-Dawley rat at 20 mg/kg, ip; assay type: ADME, organism-based; details: in vivo
[26] = MRT (0 to 24 hrs) in Sprague-Dawley rat at 5 mg/kg, iv; assay type: ADME, organism-based; details: in vivo
[27] = Clearance in Sprague-Dawley rat at 20 mg/kg, ip; assay type: ADME, organism-based; details: in vivo
[28] = AUC (0 to 24 hrs) in Sprague-Dawley rat at 20 mg/kg, ip; assay type: ADME, organism-based; set-up: dose 20 mg/kg, route ip; details: in vivo
[29] = Cmax in Sprague-Dawley rat at 20 mg/kg, ip; assay type: ADME, organism-based; set-up: dose 20 mg/kg, route ip; details: in vivo
[30] = MRT (0 to 24 hrs) in Sprague-Dawley rat at 20 mg/kg, ip; assay type: ADME, organism-based; details: in vivo
[31] = Cytotoxicity against mouse peritoneal macrophages assessed as reduction in cell viability incubated for 24 hrs by Cell titer-blue assay; assay type: toxicity, cell-based, Peritoneal macrophage
[32] = Apparent volume of distribution in Sprague-Dawley rat at 20 mg/kg, ip; assay type: ADME, organism-based; details: in vivo
[33] = Tmax in Sprague-Dawley rat at 20 mg/kg, ip; assay type: ADME, organism-based; details: in vivo
[34] = Half life in Sprague-Dawley rat at 5 mg/kg, iv; assay type: ADME, organism-based; details: in vivo

Sequence of Keap1/Nrf2 (Homo sapiens) (Q14145 whole entry, looked up): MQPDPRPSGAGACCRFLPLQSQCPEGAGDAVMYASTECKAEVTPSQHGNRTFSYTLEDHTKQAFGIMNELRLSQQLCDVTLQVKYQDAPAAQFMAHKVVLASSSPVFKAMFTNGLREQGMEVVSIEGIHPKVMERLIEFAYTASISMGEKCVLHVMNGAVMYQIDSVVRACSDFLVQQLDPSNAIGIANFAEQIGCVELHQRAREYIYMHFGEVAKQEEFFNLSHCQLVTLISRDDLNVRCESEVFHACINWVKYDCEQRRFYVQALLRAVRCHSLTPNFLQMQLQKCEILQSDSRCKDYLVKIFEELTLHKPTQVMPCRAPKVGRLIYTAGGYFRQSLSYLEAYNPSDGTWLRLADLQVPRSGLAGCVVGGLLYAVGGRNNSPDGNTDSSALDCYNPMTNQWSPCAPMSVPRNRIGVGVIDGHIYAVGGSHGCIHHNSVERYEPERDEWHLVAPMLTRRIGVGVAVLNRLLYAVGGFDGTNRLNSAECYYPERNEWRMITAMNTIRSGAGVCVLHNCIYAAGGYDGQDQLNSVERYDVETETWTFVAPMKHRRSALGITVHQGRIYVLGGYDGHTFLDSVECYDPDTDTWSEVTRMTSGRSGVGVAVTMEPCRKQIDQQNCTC
Sequence of Keap1/Nrf2 (Homo sapiens) (Q16236 whole entry, looked up): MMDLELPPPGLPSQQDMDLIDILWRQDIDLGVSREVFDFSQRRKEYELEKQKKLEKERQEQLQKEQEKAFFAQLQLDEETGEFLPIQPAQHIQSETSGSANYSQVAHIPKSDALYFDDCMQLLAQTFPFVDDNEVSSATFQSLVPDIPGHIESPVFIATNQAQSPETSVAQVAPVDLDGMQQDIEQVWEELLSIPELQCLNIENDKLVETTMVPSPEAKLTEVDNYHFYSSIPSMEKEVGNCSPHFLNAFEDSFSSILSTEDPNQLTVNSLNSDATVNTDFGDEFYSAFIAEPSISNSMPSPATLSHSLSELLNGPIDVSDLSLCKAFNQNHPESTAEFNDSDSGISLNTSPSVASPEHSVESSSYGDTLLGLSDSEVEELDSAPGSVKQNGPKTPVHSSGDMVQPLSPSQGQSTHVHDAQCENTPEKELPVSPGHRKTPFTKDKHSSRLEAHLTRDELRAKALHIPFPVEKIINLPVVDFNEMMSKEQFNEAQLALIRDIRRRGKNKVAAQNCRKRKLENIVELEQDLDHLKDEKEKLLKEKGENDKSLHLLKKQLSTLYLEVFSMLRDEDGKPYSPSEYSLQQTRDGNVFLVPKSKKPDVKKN

Q: With `CCN1CCN(CCC(=O)Nc2ccc(S(=O)(=O)N(CC(N)=O)c3ccc(N(CC(N)=O)S(=O)(=O)c4ccc(OC)cc4)c4ccccc34)cc2)CC1.Cl` as the molecule, how does the bioavailability [1] read?
A: Its bioavailability is 20%.

Q: What does the source list for `COc1ccc(S(=O)(=O)N(CC(N)=O)c2ccc(N(CC(N)=O)S(=O)(=O)c3ccc(NC(=O)[C@H]4CCN4)cc3)c3ccccc23)cc1.Cl`?
A: solubility at 24 h [2]: 484 µg/mL; solubility at 24 h [3]: 1170 µg/mL; solubility at 24 h [4]: 283 µg/mL

Q: With `COc1ccc(S(=O)(=O)N(CC(N)=O)c2ccc(N(CC(N)=O)S(=O)(=O)c3ccc(NC(=O)[C@H]4CCN4)cc3)c3ccccc23)cc1` [listing 1 of 2 here] as the molecule, how does the inhibition (Mus musculus [5]) read?
A: Its inhibition is “Active”.

Q: What about the Activity (Mus musculus [6]) of the same molecule?
A: Its Activity is “Active”.

Q: What about the K [7] of the same molecule?
A: The K was 220 nM.

Q: What about the inhibition (Mus musculus [8]) of the same molecule?
A: The inhibition was “Dose-Dependent Effect”.

Q: And the Activity (Mus musculus [9])?
A: The Activity was “Active”.

Q: And the inhibition (Mus musculus [10])?
A: Its inhibition is “Active”.

Q: What about the Activity (Peritoneal macrophage [11]) of the same molecule?
A: The Activity was “Active”.

Q: And the Activity (Mus musculus [12])?
A: Its Activity is “Active”.

Q: What about the inhibition (Mus musculus [13]) of the same molecule?
A: Its inhibition is “Dose-Dependent Effect”.

Q: What about the Activity (Mus musculus [14]) of the same molecule?
A: The Activity was “Active”.

Q: What about the inhibition (Mus musculus [15]) of the same molecule?
A: The inhibition was “Active”.

Q: And the inhibition (Mus musculus [16])?
A: Its inhibition is “Dose-Dependent Effect”.

Q: Which solubility at 24 h [2] does the source give for `COc1ccc(S(=O)(=O)N(CC(N)=O)c2ccc(N(CC(N)=O)S(=O)(=O)c3ccc(NC(=O)[C@H]4CCN4)cc3)c3ccccc23)cc1.O=C(O)/C=C\C(=O)O` here?
A: Its solubility at 24 h is 32.3 µg/mL.

Q: And the solubility at 24 h [3]?
A: The solubility at 24 h was 46.3 µg/mL.

Q: What about the solubility at 24 h [4] of the same molecule?
A: Its solubility at 24 h is 34.7 µg/mL.

Q: With `CC(=O)O.COc1ccc(S(=O)(=O)N(CC(N)=O)c2ccc(N(CC(N)=O)S(=O)(=O)c3ccc(NC(=O)[C@H]4CCN4)cc3)c3ccccc23)cc1` as the molecule, how does the solubility at 24 h [2] read?
A: Its solubility at 24 h is 162 µg/mL.

Q: What about the solubility at 24 h [3] of the same molecule?
A: Its solubility at 24 h is 311 µg/mL.

Q: And the solubility at 24 h [4]?
A: The solubility at 24 h was 160 µg/mL.

Q: Which MRT inf [17] does the source give for `COc1ccc(S(=O)(=O)N(CC(N)=O)c2ccc(N(CC(N)=O)S(=O)(=O)c3ccc(NC(=O)[C@H]4CCN4)cc3)c3ccccc23)cc1` [listing 2 of 2 here] here?
A: The MRT inf was 1.97 h.

Q: And the AUC(0-inf) [18]?
A: Its AUC(0-inf) is 11200 ng·h/mL.

Q: What about the MRT inf [19] of the same molecule?
A: Its MRT inf is 9.67 h.

Q: And the AUC(0-inf) [20]?
A: The AUC(0-inf) was 1590 ng·h/mL.

Q: And the solubility at 24 h [2]?
A: The solubility at 24 h was 404 µg/mL (≈ 593 µM).

Q: What about the solubility at 24 h [3] of the same molecule?
A: The solubility at 24 h was 601 µg/mL (≈ 883 µM).

Q: And the Vd [21]?
A: The Vd was 60.5 L/kg.

Q: And the clearance [22]?
A: The clearance was 57.4 mL/min/kg.

Q: And the “fold change (FC)” value (Peritoneal macrophage [23])?
A: The value was “<=0.5”.

Q: And the AUC(0-t) [24]?
A: The AUC(0-t) was 1390 ng·h/mL.

Q: And the half-life [25]?
A: The half-life was 5.75 h.

Q: What about the MRT last [26] of the same molecule?
A: The MRT last was 2.83 h.

Q: What about the CL/F [27] of the same molecule?
A: The CL/F was 31.8 mL/min/kg.

Q: What about the AUC(0-t) [28] of the same molecule?
A: The AUC(0-t) was 11200 ng·h/mL.

Q: And the Cmax [29]?
A: Its Cmax is 8430 ng/mL.

Q: What about the MRT last [30] of the same molecule?
A: Its MRT last is 1.75 h.

Q: And the CC50 at 24 h [31]?
A: The CC50 at 24 h was over 100 µM.

Q: What about the solubility at 24 h [4] of the same molecule?
A: Its solubility at 24 h is 216 µg/mL (≈ 318 µM).

Q: And the Vz [32]?
A: The Vz was 16.24474 L/kg.

Q: What about the Tmax [33] of the same molecule?
A: Its Tmax is 0.38 h.

Q: What about the half-life [34] of the same molecule?
A: The half-life was 12.7 h.

Source: ChEMBL document CHEMBL5338809, “Fragment-Based Discovery of Azocyclic Alkyl Naphthalenesulfonamides as Keap1-Nrf2 Inhibitors for Acute Lung Injury Treatment” (J Med Chem, 2023)
